Assay results published in patent US4431809A, “Antibiotic A-33853 derivatives” (Eli Lilly and Company, priority 1982, dated 1984).
Converted amounts (≈) assume the structure as drawn. Read-outs that look alike come from different tables or passages of the source.

Experiments:
Trichomonas vaginalis = assay: Tube-dilution test, Trichomonas vaginalis; format: cell-based; conditions: for MIC: Trichomonas vaginalis, tube-dilution test, T. vaginalis, read-out: minimal inhibitory concentration (MIC); for in vitro activity against Trichomonas vaginalis: in words
Solubility = format: physicochemical
[1] = 66 percent aqueous dimethylformamide
[2] = test system: Maryland B influenza virus; assay: In vitro antiviral activity, Maryland B influenza virus; format: cell-based; conditions: in words
[3] = test system: Streptococcus sp. Group D X66; format: cell-based
[4] = test system: Streptococcus pneumoniae Park I; format: cell-based; conditions: 24 h
[5] = test system: Staphylococcus epidermidis 222; format: cell-based; conditions: agar-dilution, 24 hours
[6] = test system: Staphylococcus aureus V41; format: cell-based
[7] = test system: Haemophilus influenzae 76; format: cell-based; conditions: agar-dilution, 24 hours
physchem = conditions: 66% dimethylformamide in water
[8] = test system: Streptococcus pyogenes C203; format: cell-based; conditions: agar-dilution, 24 hours
[9] = test system: Streptococcus sp. Group D 9960; format: cell-based; conditions: agar-dilution, 24 hours
[10] = test system: Haemophilus influenzae C.L.; format: cell-based; conditions: agar-dilution, 24 hours
[11] = test system: Staphylococcus aureus X400; format: cell-based; conditions: agar-dilution, 24 hours
[12] = test system: Staphylococcus epidermidis EPI1; format: cell-based; conditions: EPI1, 24 h
Salmonella dublin = assay: In vitro MIC, bacteria pathogenic to animals; format: cell-based; conditions: Salmonella enterica
Protocol: (§1) Antibiotic A-33853 was also tested in vitro to determine the MIC in μg./ml. against a number of bacterial organisms pathogenic to animals.

Mycoplasma gallisepticum = assay: In vitro MIC, bacteria pathogenic to animals; format: cell-based; conditions: Mycoplasmoides gallisepticum
Protocol: as §1

Pseudomonas (animal) = assay: In vitro MIC, bacteria pathogenic to animals; format: cell-based
Protocol: as §1

Pseudomonas (fish) = assay: In vitro MIC, bacteria pathogenic to animals; format: cell-based
Protocol: as §1

Mycoplasma hyopneumoniae = assay: In vitro MIC, bacteria pathogenic to animals; format: cell-based; conditions: Mesomycoplasma hyopneumoniae
Protocol: as §1

Staphylococcus sp. = assay: In vitro MIC, bacteria pathogenic to animals; format: cell-based
Protocol: as §1

Escherichia coli = assay: In vitro MIC, bacteria pathogenic to animals; format: cell-based
Protocol: as §1

[13] = test system: Pasteurella multocida (bovine); assay: In vitro MIC, bacteria pathogenic to animals; format: cell-based
Protocol: as §1

Aeromonas liquefaciens = assay: In vitro MIC, bacteria pathogenic to animals; format: cell-based; conditions: Aeromonas hydrophila
Protocol: as §1

Mycoplasma hyorhinis = assay: In vitro MIC, bacteria pathogenic to animals; format: cell-based
Protocol: as §1

Streptococcus sp. = assay: In vitro MIC, bacteria pathogenic to animals; format: cell-based
Protocol: as §1

[14] = test system: Bordetella bronchiseptica; assay: In vitro MIC, bacteria pathogenic to animals; format: cell-based
Protocol: as §1

Mycoplasma synoviae = assay: In vitro MIC, bacteria pathogenic to animals; format: cell-based; conditions: Mycoplasmopsis synoviae
Protocol: as §1

[15] = test system: Pasteurella multocida (turkey); assay: In vitro MIC, bacteria pathogenic to animals; format: cell-based
Protocol: as §1

Eimeria tenella = assay: In vitro activity against Eimeria tenella; format: cell-based; conditions: in words
Salmonella typhosa SA12 = assay: Agar-dilution screening (ICS); conditions: Salmonella enterica
[16] = test system: Staphylococcus aureus 3074; assay: Agar-dilution screening (ICS); format: cell-based; conditions: benzylpenicillin resistant
[17] = Acute toxicity in the mouse, IP; conditions: in vivo
mosquito = assay: Mosquito larvicide activity; format: in vivo; conditions: in words
[18] = test system: Streptococcus pyogenes C203; assay: Disc-plate screening; format: cell-based; conditions: read-out: Zone Diameter
Protocol: (§2) Agar plates, inoculated with the test organism, were used; 6 mm. discs (0.02 ml. capacity) were saturated from log 2 dilutions of the antibiotic solution. Disc content was 1/5 or 1/50 of the concentration of the solution used, i.e., disc content of […] 30 μg. was obtained from a solution of 1500 μg./ml. concentration.

[19] = test system: Staphylococcus aureus 3074; assay: Disc-plate screening; format: cell-based; conditions: benzylpenicillin resistant, read-out: Zone Diameter
Protocol: as §2

[20] = test system: Staphylococcus aureus 3055; assay: Disc-plate screening; format: cell-based; conditions: benzylpenicillin-susceptible, read-out: Zone Diameter
Protocol: as §2

[21] = test system: Staphylococcus aureus 3130; assay: Disc-plate screening; format: cell-based; conditions: benzylpenicillin resistant, methicillin resistant, read-out: Zone Diameter
Protocol: as §2

[22] = test system: Staphylococcus aureus 3055; assay: Agar-dilution screening (ICS); format: cell-based; conditions: benzylpenicillin-susceptible
[23] = alkaline solutions and most organic solvents

## CC(=O)OC(=O)c1cccc2oc(-c3cccc(OC(C)=O)c3N(C(C)=O)C(=O)c3ncccc3OC(C)=O)nc12 [tetraacetyl A-33853, 2-[2-[acetyl[[3-(acetyloxy)-2-pyridinyl]carbonyl]amino]-3-(acetyloxy)phenyl]-4-benzoxazolecarboxylic acid, anhydride with acetic acid]
Trichomonas vaginalis
  MIC: 125 µg/mL (≈ 223 µM)
  in vitro activity against Trichomonas vaginalis: active in vitro
Solubility; acetone, methanol, ethyl acetate, tetrahydrofuran, water, dimethyl sulfoxide, 0.1 N aqueous NaOH, 0.1 N aqueous HCl
  solubility: insoluble, or only sparingly soluble
Solubility; organic solvent or mixture, soluble in pyridine and chloroform, read-out: solubility
  solubility: ≥ 1000 µg/mL
[1]
  titratable groups: no titratable groups
[2]
  growth inhibition / activity in vitro: active in vitro

## CC(=O)Oc1cccnc1C(=O)N(C(C)=O)c1c(OC(C)=O)cccc1-c1nc2c(C(=O)O)cccc2o1 [triacetyl derivative]
[3]; agar-dilution, 24 hours, read-out: MIC
  MIC: > 128 µg/mL
[4]
  MIC: 32 µg/mL (≈ 61.8 µM)
[5]
  MIC: 4 µg/mL (≈ 7.73 µM)
[6]; V41, agar-dilution, 24 hours, read-out: MIC
  MIC: 32 µg/mL (≈ 61.8 µM)
Solubility; [23]
  solubility: soluble
Solubility; hydrocarbon solvents and water
  solubility: insoluble
[7]
  MIC: 64 µg/mL (≈ 124 µM)
physchem; pH 4.7, pKa
  pKa: 6.85
[8]
  MIC: 8 µg/mL (≈ 15.5 µM)
[9]
  MIC: > 128 µg/mL
[10]
  MIC: 4 µg/mL (≈ 7.73 µM)
[11]
  MIC: 64 µg/mL (≈ 124 µM)
[12]; read-out: MIC
  MIC: 16 µg/mL (≈ 30.9 µM)

## O=C(Nc1c(O)cccc1-c1nc2c(C(=O)O)cccc2o1)c1ncccc1O [A-33853, 2-[3-hydroxy-2-[[(3-hydroxy-2-pyridinyl)carbonyl]amino]phenyl]-4-benzoxazolecarboxylic acid]
Salmonella dublin
  MIC: > 50 µg/mL
Mycoplasma gallisepticum
  MIC: 1.56 µg/mL (≈ 3.99 µM)
Pseudomonas (animal)
  MIC: > 50 µg/mL
Pseudomonas (fish)
  MIC: 50 µg/mL (≈ 128 µM)
Mycoplasma hyopneumoniae
  MIC: < 0.78 µg/mL
Staphylococcus sp.
  MIC: 3.12 µg/mL (≈ 7.97 µM)
Escherichia coli
  MIC: > 50 µg/mL
[13]
  MIC: 1.56 µg/mL (≈ 3.99 µM)
Aeromonas liquefaciens
  MIC: 3.12 µg/mL (≈ 7.97 µM)
Mycoplasma hyorhinis
  MIC: 1.56 µg/mL (≈ 3.99 µM)
Streptococcus sp.
  MIC: 6.25 µg/mL (≈ 16 µM)
[14]
  MIC: > 50 µg/mL
Mycoplasma synoviae
  MIC: 1.56 µg/mL (≈ 3.99 µM)
[15]
  MIC: 6.25 µg/mL (≈ 16 µM)
Eimeria tenella
  in vitro activity against Eimeria tenella: active in vitro
Salmonella typhosa SA12
  MIC: 2 µg/mL (≈ 5.11 µM)
[16]
  MIC: 2 µg/mL (≈ 5.11 µM)
[17]
  LD50: > 300 mg/kg
mosquito
  mosquito larvicide activity: active as a mosquito larvicide
Trichomonas vaginalis
  MIC: < 0.975 µg/mL
  in vitro activity against Trichomonas vaginalis: active in vitro
Solubility; acetone, methanol, ethyl acetate, tetrahydrofuran, chloroform, and water
  solubility: less soluble
Solubility; organic solvent or mixture, soluble in dimethylsulfoxide, pyridine, and 0.1 N sodium hydroxide, read-out: solubility
  solubility: ≥ 5000 µg/mL
[18]; 30 μg./disc
  zone of inhibition at 30 µg/disc: 0 mm
[18]; 300 μg./disc
  zone of inhibition at 300 µg/disc: 8 mm
[19]; 30 μg./disc
  zone of inhibition at 30 µg/disc: 10.4 mm
[19]; 300 μg./disc
  zone of inhibition at 300 µg/disc: 11.6 mm
[20]; 30 μg./disc
  zone of inhibition at 30 µg/disc: 10 mm
[20]; 300 μg./disc
  zone of inhibition at 300 µg/disc: 11 mm
[21]; 30 μg./disc
  zone of inhibition at 30 µg/disc: 13.2 mm
[21]; 300 μg./disc
  zone of inhibition at 300 µg/disc: 13.4 mm
physchem; pH 5, pKa (first titratable group)
  pKa: ~7.25
physchem; pH 5, pKa (second titratable group)
  pKa: ~10
physchem; pH 5, pKa (third titratable group)
  pKa: ~12.2
[2]
  growth inhibition / activity in vitro: inhibits the growth in vitro
[22]
  MIC: 2 µg/mL (≈ 5.11 µM)

## CC(=O)Oc1cccnc1C(=O)Nc1c(OC(C)=O)cccc1-c1nc2c(C(=O)O)cccc2o1 [diacetyl derivative]
[3]; 24 h
  MIC: > 128 µg/mL
[4]
  MIC: 8 µg/mL (≈ 16.8 µM)
[5]
  MIC: 4 µg/mL (≈ 8.41 µM)
[6]; V41, 24 h
  MIC: 16 µg/mL (≈ 33.7 µM)
Solubility; [23]
  solubility: soluble
Solubility; hydrocarbon solvents and water
  solubility: insoluble
[7]
  MIC: 64 µg/mL (≈ 135 µM)
physchem; pH 4.92, pKa
  pKa: 6.8
[8]
  MIC: 8 µg/mL (≈ 16.8 µM)
[9]
  MIC: > 128 µg/mL
[10]
  MIC: 4 µg/mL (≈ 8.41 µM)
[11]
  MIC: 16 µg/mL (≈ 33.7 µM)
[12]
  MIC: 8 µg/mL (≈ 16.8 µM)
